In patent US5767142A, “Trisbenzimidazoles useful as topoisomerase I inhibitors” (Rutgers, The State University of New Jersey, priority 1996, dated 1998):
pIC50: −log10 of the molar value. Converted amounts (≈) assume the structure as drawn. Where two headings read alike, the source gives them in different places.

Assays:
[1] = system: human lymphoblast RPMI 8402 cells; experiment: MTT cytotoxicity assay, RPMI 8402; format: cell-based; conditions: for pIC50: Homo sapiens, RPMI 8402, 96 h, read-out: Cytotoxicity IC50, RPMI
Description: (§1) The cytotoxicity was determined using the as MTT-microtiter plate tetrazolinium cytotoxicity assay (MTA) following the procedures of F. Denizot et al., J. Immunol. […] The cytotoxicity assay was performed using 96-well microtiter plates. Cells were grown in suspension at 37° C. in 5% CO2 and maintained by regular passage in RPMI medium supplemented with 10% heat inactivated fetal bovine serum, L-glutamine (2 mM), penicillin (100 U/ml), and streptomycin (0.1 mg/ml). For determination of IC50, cells were exposed continuously with varying concentrations of drug concentrations and MTT assays were performed at the end of the fourth day.

[2] = system: CPT-K5 cells (camptothecin-resistant variant of RPMI 8402); experiment: MTT cytotoxicity assay, camptothecin-resistant CPT-K5; format: cell-based, human; conditions: for pIC50: Homo sapiens, CPT-K5, 96 h, read-out: Cytotoxicity IC50, CPT-K5
Description: as §1

[3] = target: T1, calf thymus topoisomerase I (Bos taurus, UniProt A0AAA9TV68); experiment: Topoisomerase I-mediated DNA cleavage assay (calf thymus topoisomerase I, plasmid YEpG); format: biochemical
T1 construct: plasmid YEpG DNA cleavage assay
T1 sequence (A0AAA9TV68 2-769): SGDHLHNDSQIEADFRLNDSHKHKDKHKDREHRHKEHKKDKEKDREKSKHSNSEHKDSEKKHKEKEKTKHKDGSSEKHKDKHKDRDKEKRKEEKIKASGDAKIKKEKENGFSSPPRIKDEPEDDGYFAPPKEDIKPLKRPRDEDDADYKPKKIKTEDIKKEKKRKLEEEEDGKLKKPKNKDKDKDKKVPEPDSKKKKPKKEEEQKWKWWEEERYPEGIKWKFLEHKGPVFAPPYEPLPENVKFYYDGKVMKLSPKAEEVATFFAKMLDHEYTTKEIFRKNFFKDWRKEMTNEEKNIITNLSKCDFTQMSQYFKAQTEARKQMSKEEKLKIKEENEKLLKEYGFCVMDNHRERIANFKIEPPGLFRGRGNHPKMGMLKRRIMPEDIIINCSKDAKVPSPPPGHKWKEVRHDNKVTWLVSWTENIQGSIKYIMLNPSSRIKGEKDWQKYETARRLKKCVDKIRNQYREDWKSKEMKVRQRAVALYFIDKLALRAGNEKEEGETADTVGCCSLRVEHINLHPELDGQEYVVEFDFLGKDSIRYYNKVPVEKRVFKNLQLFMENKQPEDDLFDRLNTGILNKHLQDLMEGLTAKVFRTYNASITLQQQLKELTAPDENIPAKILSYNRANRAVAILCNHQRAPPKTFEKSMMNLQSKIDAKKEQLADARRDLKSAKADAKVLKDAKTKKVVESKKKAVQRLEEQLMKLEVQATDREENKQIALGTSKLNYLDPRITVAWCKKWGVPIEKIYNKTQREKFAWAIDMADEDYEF
From the text: DNA topoisomerase I was purified from calf thymus gland as reported previously by B. D. Halligan et al., J. Biol. Chem., 260, 2475 (1985). Plasmid YEpG was also purified by the alkali lysis method followed by phenol deproteination and CsCl/ethidium isopycnic centrifugation as described by T. Mariatis et al., Molecular Cloning, A Laboratory Manual, Cold Spring Harbor Labs, NY (1982) at pages 149-185. The end-labeling of the plasmid was accomplished as previously described by L. F. Liu et al., J. Biol. Chem., 258, 15365 (1983). The cleavage assays were performed as previously reported by A. Y. Chen et al., Cancer Res., 53, 1332 (1993). Human topoisomerase was isolated as a recombinant fusion protein using a T7 expression system.
^b Topoisomerase I cleavage values are reported as REC, Relative
Effective Concentration, i.e. concentrations relative to Hoechst 33342,
whose value is arbitrarily assumed as 1, that are able to produce the sam
cleavage on the plasmid DNA in the presence of calf thymus topoisomerase
I. Cleavage is calculated from the intensity of the strongest Hoechst

mammalian tumor cells = experiment: Cytotoxicity to tumor cells, general statement; format: cell-based; conditions: cell line not specified
[4] = system: human MDR1 (P-glycoprotein); experiment: Substrate of human MDR1 (P-glycoprotein), from cytotoxicity in KB 3-1 and KB V-1 cells; format: cell-based; conditions: concluded from KB 3-1 / KB V-1 IC50 values
Description: The drug sensitive human epidermoid carcinoma KB3-1 cell line (S. Aliyama et al., Somatic Cell Mol. Genet, 11, 117 (1985)) and its vinblastine-selected multidrug-resistant variant KBV-1 cells (D. W. Shen et al., Science, 32, 643 (1986)) were provided by Dr. Michael Gottesmann (National Cancer Institute, Bethesda, ML). These cells were grown as monolayer cultures at in 5% CO2 and maintained by regular passage in Dulbecco's minimal essential medium supplemented with 10% heat inactivated fetal bovine serum. KBV-1 cells were similarly maintained except they were grown in the presence of 1 μg/ml vinblastine.
The cytotoxic activity of Hoechst 33342 and 13 was also evaluated against KB 3-1 and KB V-1 cells. The primary difference between these cell lines is in the degree to which human MDR1 (P-glycoprotein) is expressed. […] Pharmacol., 245, 29B (1994).

[5] = system: CPT-2000, a variant of A2780; experiment: Cytotoxicity, camptothecin-resistant CPT-2000; format: cell-based; conditions: Homo sapiens
Description: (§2) The cytotoxicity was determined using the as MTT-microtiter plate tetrazolinium cytotoxicity assay (MTA) following the procedures of F. Denizot et al., J. Immunol. Methods, 89, 271 (1986); J. Carmichael et al., Cancer Res., 47, 936 (1987) and T. J. Mosmann et al., Immunol. Methods, 65, 55 (1983). The human lymphoblast RPMI 8402 and its camptothecin-resistant variant cell line, CPT-K5 were provided by Dr. Toshiwo Andoh (Aichi Cancer Center Research Institute, Nagoya, Japan). See, for example, T. Andoh et al., Adv. Pharmacol., 29B, 93 (1994). The cytotoxicity assay was performed using 96-well microtiter plates. Cells were grown in suspension at 37° C. in 5% CO2 and maintained by regular passage in RPMI medium supplemented with 10% heat inactivated fetal bovine serum, L-glutamine (2 mM), penicillin (100 U/ml), and streptomycin (0.1 mg/ml). For determination of IC50, cells were exposed continuously with varying concentrations of drug concentrations and MTT assays were performed at the end of the fourth day.

[6] = system: KBV-1 cells (multidrug-resistant variant of KB3-1, overexpress MDR1); experiment: MTT cytotoxicity assay, multidrug-resistant KBV-1; format: cell-based, human; conditions: for pIC50: Homo sapiens, KB-V1, 96 h, read-out: Cytotoxicity IC50, KBV-1
Description: as §1
(§3) These cells were grown as monolayer cultures at in 5% CO2 and maintained by regular passage in Dulbecco's minimal essential medium supplemented with 10% heat inactivated fetal bovine serum. KBV-1 cells were similarly maintained except they were grown in the presence of 1 μg/ml vinblastine.

[7] = system: human ovarian tumor cell line, A2780; experiment: Cytotoxicity, ovarian tumor cell line A2780; format: cell-based
Description: as §2

[8] = system: human epidermoid carcinoma KB3-1 cell line; experiment: MTT cytotoxicity assay, KB3-1; format: cell-based; conditions: KB 3-1, 96 h, 4 days continuous drug exposure
Description: as §1, §3

fungi = experiment: Antifungal activity
[9] = system: CPT-K5 cells (camptothecin-resistant variant of RPMI 8402); conditions: as reported by A. Y. Chen et al., Cancer Res., 53, 1332 (1993); cited from earlier work
[10] = 4 days continuous drug exposure

c1ccc2[nH]c(-c3ccc4[nH]c(-c5ccc6[nH]cnc6c5)nc4c3)nc2c1 [Compound 10, 2-[2'-(Benzimidazol-5"-yl)benzimidazol-5'-yl]benzimidazole]
Cytotoxicity towards RPMI 8402 (in words) [1]: failed to exhibit significant cytotoxicity | pIC50 [1]: 4.85 | pIC50 [2]: 4.55

N#Cc1ccc2[nH]c(-c3ccc4[nH]c(-c5ccc6[nH]cnc6c5)nc4c3)nc2c1 [Compound 11, 5-Cyano-2-[2'-(benzimidazol-5"-yl)benzimidazol-5'-yl]benzimidazole]
Cytotoxicity towards RPMI 8402 (in words) [1]: failed to exhibit significant cytotoxicity | pIC50 [1, 10]: < 4.60 | pIC50 [2, 10]: < 4.60

CCCc1ccc2nc(-c3ccc4nc(-c5ccc6nc[nH]c6c5)[nH]c4c3)[nH]c2c1 [Compound 12, 5-Propyl-2-[2'-(benzimidazol-5"-yl)benzimidazol-5'-yl]benzimidazole]
Potency as topoisomerase I inhibitor (in words) [3]: much less active than either 10, 11, or 13 as an inhibitor of topoisomerase I | pIC50 [1, 10]: 5.12 | Cytotoxicity to tumor cells (in words) (mammalian tumor cells): weak cytotoxicity | pIC50 [2, 10]: 4.70

c1ccc(-c2ccc3nc(-c4ccc5nc(-c6ccc7nc[nH]c7c6)[nH]c5c4)[nH]c3c2)cc1 [Compound 13, 5-Phenyl-2-[2'(benzimidazol-5"-yl)benzimidazol-5'-yl]benzimidazole]
Substrate for human MDR1 (in words) [4]: appears not to be a substrate for human MDR1 | Potency as topoisomerase I inhibitor (in words) [3]: approximately one-half as potent as Hoechst 33342 as a topoisomerase I inhibitor | IC50 [5]: 0.03 µg/mL (≈ 0.0703 µM) | pIC50 [6]: 6.46 | Difference of cytotoxicity between KB 3-1 and KB V-1 cells (in words) ([6]; KB 3-1 versus KB V-1): little difference between the IC50 values | IC50 [7]: 0.015 µg/mL (≈ 0.0352 µM) | Cytotoxicity towards RPMI 8402 (in words) [1]: significant cytotoxicity | pIC50 [1, 10]: 7.05 | Cytotoxicity against CPT-K5 cells (in words) [2]: effective against camptothecin-resistant CPT-K5 cells | Relative resistance (ratio of IC50 values of resistant versus drug sensitive cell line) ([2]; CPT-K5 versus RPMI 8402, 5760 min): approximately 30 fold | pIC50 [2]: 6.24

c1ccc(-c2ccc3nc(-c4ccc5nc(-c6ccc7nc[nH]c7c6)[nH]c5c4)[nH]c3c2)nc1 [Compound 14, 5-(2-Pyridyl)-2-[2'-(benzimidazol-5"-yl)benzimidazol-5'-yl]benzimidazole]
pIC50 [6, 10]: 7.05 | pIC50 [1, 10]: 6.80 | pIC50 [8]: 7.30 | Antifungal activity (in words) (fungi): exhibits antifungal activity | pIC50 [2]: 5.24

c1cncc(-c2ccc3nc(-c4ccc5nc(-c6ccc7nc[nH]c7c6)[nH]c5c4)[nH]c3c2)c1 [Compound 15, 5-(3-Pyridyl)-2-[2'-(benzimidazol-5"-yl)benzimidazol-5'-yl]benzimidazole]
Potency as topoisomerase I inhibitor (in words) [3]: somewhat more active than the 2-pyridyl derivative, 14, as topoisomerase I inhibitors | pIC50 [6, 10]: 7.70 | pIC50 [1, 10]: 7.46 | Cytotoxicity to tumor cells (in words) (mammalian tumor cells): somewhat more active than the 2-pyridyl derivative, 14, as topoisomerase I inhibitors as well as cytotoxic agents | pIC50 [8]: 7.70 | pIC50 [2]: 5.60

c1cc(-c2ccc3nc(-c4ccc5nc(-c6ccc7nc[nH]c7c6)[nH]c5c4)[nH]c3c2)ccn1 [Compound 16, 5-(4-Pyridyl)-2-[2'-(benzimidazol-5"-yl)benzimidazol-5'-yl]benzimidazole]
Potency as topoisomerase I inhibitor (in words) [3]: somewhat more active than the 2-pyridyl derivative, 14, as topoisomerase I inhibitors | pIC50 [6, 10]: 8.00 | pIC50 [1, 10]: 7.46 | Cytotoxicity to tumor cells (in words) (mammalian tumor cells): somewhat more active than the 2-pyridyl derivative, 14, as topoisomerase I inhibitors as well as cytotoxic agents | pIC50 [8]: 7.70 | pIC50 [2]: 5.60

N#Cc1ccc2nc(-c3ccc4nc[nH]c4c3)[nH]c2c1 [Compound 19, 5-Cyano-2-(benzimidazol-5'-yl)benzimidazole]
pIC50 [1, 10]: < 4.60

Brc1ccc2nc(-c3ccc4nc(-c5ccc6nc[nH]c6c5)[nH]c4c3)[nH]c2c1 [JSKIV-37, 5-Bromo-2-[2'-(benzimidazol-5"-yl)benzimidazol-5'-yl]-benzimidazole]
pIC50 [2]: 5.85

Clc1ccc(-c2ccc3nc(-c4ccc5nc(-c6ccc7nc[nH]c7c6)[nH]c5c4)[nH]c3c2)cc1 [JSKIV-47, 5-(p-Chlorophenyl)-2-[2'-(benzimidazol-5"-yl)benzimidazol-5'-yl]-benzimidazole]
pIC50 [1, 10]: 7.05 | pIC50 [2, 10]: 6.70

Clc1ccc2nc(-c3ccc4nc(-c5ccc6nc[nH]c6c5)[nH]c4c3)[nH]c2c1 [JSKIV-68, 5-Chloro-2-[2'-(benzimidazol-5"-yl)benzimidazol-5'-yl]-benzimidazole]
pIC50 [1, 10]: 5.98 | pIC50 [2]: 6.19

CC[C@@]1(O)C(=O)OCc2c1cc1n(c2=O)Cc2cc3ccccc3nc2-1 [camptothecin]
Relative resistance of camptothecin (ratio of IC50 values of resistant versus drug sensitive cell line) [9]: 2,500 fold
